Results published in ChEMBL document CHEMBL5108002, “Design, synthesis, and biological evaluation of novel 7-substituted 10,11-methylenedioxy-camptothecin derivatives against drug-resistant small-cell lung cancer in vitro and in vivo” (Eur J Med Chem, 2022).
Calls of active or inactive are those of the source. The calls are words filed in the database; no cut-off is given here.

Assays:
NCI-H446 [1] = assay: Antitumor activity against human NCI-H446 cells xenografted in BALB/c nude mouse assessed as tumor growth inhibition at 3 mg/kg, IG administered once a week for 28 days by electronic caliper method relative to control; format: functional; conditions: NCI-H446, po, 672 h, time 28 day, read-out: TGI
[2] = Resistance index, ratio of IC50 for antiproliferative activity against Irinotecan-resistant human NCI-H446 cells to IC50 for antiproliferative activity against human NCI-H446 cells; format: functional
NCI-H446 [3] = assay: Antiproliferative activity against etoposide/cisplatin combination-resistant human NCI-H446 cells assessed as inhibition of cell growth incubated for 72 hrs by SRB assay; format: functional, cell-based; conditions: NCI-H446, 72 h
NCI-H446 [4] = assay: Antiproliferative activity against Irinotecan-resistant human NCI-H446 cells assessed as inhibition of cell growth incubated for 72 hrs by SRB assay; format: functional, cell-based; conditions: NCI-H446, 72 h
NCI-H446 [5] = assay: Antitumor activity against Irinotecan-resistant human NCI-H446 cells xenografted in BALB/c nude mouse assessed as tumor weight at 100 mg/kg, IG administered once a week and measured 3 times a week for 35 days; format: functional; conditions: time 35 day
[6] = Resistance index, ratio of IC50 for antiproliferative activity against etoposide/cisplatin combination-resistant human NCI-H446 cells to IC50 for antiproliferative activity against human NCI-H446 cells; format: functional
SW-620 = assay: Antiproliferative activity against human SW-620 cells assessed as inhibition of cell growth incubated for 72 hrs by SRB assay; format: functional, cell-based; conditions: SW-620, 72 h
2008 = assay: Antiproliferative activity against human 2008 cells assessed as inhibition of cell growth incubated for 72 hrs by SRB assay; format: functional, cell-based; conditions: Homo sapiens, 2008, 72 h
NCI-H446 [7] = assay: Induction of apoptosis in human NCI-H446 cells assessed as dead cells at 0.1 nM incubated for 24 hrs by AnnexinV-FITC/PI staining based flow cytometry analysis (reference value: 0.33 %); format: functional
H69AR [8] = assay: Antiproliferative activity against human NCI-H69AR cells assessed as inhibition of cell growth incubated for 72 hrs by SRB assay; format: functional, cell-based
H69AR [9] = assay: Induction of apoptosis in human NCI-H69AR cells assessed as late apoptotic cells at 1 nM incubated for 24 hrs by AnnexinV-FITC/PI staining based flow cytometry analysis (reference value: 2.99 %); format: functional
NCI-H446 [10] = assay: Induction of apoptosis in human NCI-H446 cells assessed as dead cells at 1 nM incubated for 24 hrs by AnnexinV-FITC/PI staining based flow cytometry analysis (reference value: 0.33 %); format: functional
NCI-H446 [11] = assay: Induction of apoptosis in human NCI-H446 cells assessed as dead cells at 10 nM incubated for 24 hrs by AnnexinV-FITC/PI staining based flow cytometry analysis (reference value: 0.33 %); format: functional
NCI-H446 [12] = assay: Induction of apoptosis in human NCI-H446 cells assessed as increase in cleaved-caspase 9 protein expression at 0.1 to 100 nM measured after 24 hrs by Western blot analysis; format: functional, cell-based; conditions: dose 0.1-100 nM
NCI-H446 [13] = assay: Induction of apoptosis in human NCI-H446 cells assessed as late apoptotic cells at 0.1 nM incubated for 24 hrs by AnnexinV-FITC/PI staining based flow cytometry analysis (reference value: 1.55 %); format: functional
NCI-H446 [14] = assay: Induction of apoptosis in human NCI-H446 cells assessed as early apoptotic cells at 1 nM incubated for 24 hrs by AnnexinV-FITC/PI staining based flow cytometry analysis (reference value: 2.43 %); format: functional
H69AR [15] = assay: Induction of apoptosis in human NCI-H69AR cells assessed as late apoptotic cells at 100 nM incubated for 24 hrs by AnnexinV-FITC/PI staining based flow cytometry analysis (reference value: 2.99 %); format: functional
SH-SY5Y = assay: Antiproliferative activity against human SH-SY5Y cells assessed as inhibition of cell growth incubated for 72 hrs by SRB assay; format: functional, cell-based
HepG2 = assay: Antiproliferative activity against human HepG2 cells assessed as inhibition of cell growth incubated for 72 hrs by SRB assay; format: functional, cell-based; conditions: HepG2, 72 h
NCI-H446 [16] = assay: Induction of apoptosis in human NCI-H446 cells assessed as increase in cleaved-PARP protein expression at 0.1 to 100 nM measured after 24 hrs by Western blot analysis; format: functional, cell-based; conditions: dose 0.1-100 nM
NCI-H446 [17] = assay: Induction of apoptosis in human NCI-H446 cells assessed as increase in cleaved-caspase 3 protein expression at 0.1 to 100 nM measured after 24 hrs by Western blot analysis; format: functional, cell-based; conditions: dose 0.1-100 nM
NCI-H446 [18] = assay: Induction of apoptosis in human NCI-H446 cells assessed as early apoptotic cells at 10 nM incubated for 24 hrs by AnnexinV-FITC/PI staining based flow cytometry analysis (reference value: 2.43 %); format: functional
H69AR [19] = assay: Induction of apoptosis in human NCI-H69AR cells assessed as dead cells at 10 nM incubated for 24 hrs by AnnexinV-FITC/PI staining based flow cytometry analysis (reference value: 1.92 %); format: functional
NCI-H69 = assay: Antiproliferative activity against human NCI-H69 cells assessed as inhibition of cell growth incubated for 72 hrs by SRB assay; format: functional, cell-based; conditions: NCI-H69, 72 h
NCI-H446 [20] = assay: Induction of apoptosis in human NCI-H446 cells assessed as early apoptotic cells at 0.1 nM incubated for 24 hrs by AnnexinV-FITC/PI staining based flow cytometry analysis (reference value: 2.43 %); format: functional
MCF7 = assay: Antiproliferative activity against human MCF7 cells assessed as inhibition of cell growth incubated for 72 hrs by SRB assay; format: functional, cell-based; conditions: MCF7, 72 h
H69AR [21] = assay: Induction of apoptosis in human NCI-H69AR cells assessed as early apoptotic cells at 10 nM incubated for 24 hrs by AnnexinV-FITC/PI staining based flow cytometry analysis (reference value: 0.35 %); format: functional
H69AR [22] = assay: Induction of apoptosis in human NCI-H69AR cells assessed as dead cells at 100 nM incubated for 24 hrs by AnnexinV-FITC/PI staining based flow cytometry analysis (reference value: 1.92 %); format: functional
H69AR [23] = assay: Induction of apoptosis in human NCI-H69AR cells assessed as late apoptotic cells at 10 nM incubated for 24 hrs by AnnexinV-FITC/PI staining based flow cytometry analysis (reference value: 2.99 %); format: functional
H69AR [24] = assay: Induction of apoptosis in human NCI-H69AR cells assessed as dead cells at 1 nM incubated for 24 hrs by AnnexinV-FITC/PI staining based flow cytometry analysis (reference value: 1.92 %); format: functional
H69AR [25] = assay: Induction of apoptosis in human NCI-H69AR cells assessed as early apoptotic cells at 100 nM incubated for 24 hrs by AnnexinV-FITC/PI staining based flow cytometry analysis (reference value: 0.35 %); format: functional
NCI-H446 [26] = assay: Induction of apoptosis in human NCI-H446 cells assessed as late apoptotic cells at 10 nM incubated for 24 hrs by AnnexinV-FITC/PI staining based flow cytometry analysis (reference value: 1.55 %); format: functional
Bel-7402 = assay: Antiproliferative activity against human Bel-7402 cells assessed as inhibition of cell growth incubated for 72 hrs by SRB assay; format: functional, cell-based; conditions: Bel-7402, 72 h
U-87 MG = assay: Antiproliferative activity against human U87 cells assessed as inhibition of cell growth incubated for 72 hrs by SRB assay; format: functional, cell-based, U-87MG ATCC
H69AR [27] = assay: Induction of apoptosis in human NCI-H69AR cells assessed as early apoptotic cells at 1 nM incubated for 24 hrs by AnnexinV-FITC/PI staining based flow cytometry analysis (reference value: 0.35 %); format: functional
NCI-H446 [28] = assay: Induction of apoptosis in human NCI-H446 cells assessed as late apoptotic cells at 1 nM incubated for 24 hrs by AnnexinV-FITC/PI staining based flow cytometry analysis (reference value: 1.55 %); format: functional

CCc1c2c(nc3ccc(OC(=O)N4CCC(N5CCCCC5)CC4)cc13)-c1cc3c(c(=O)n1C2)COC(=O)[C@]3(O)CC [IRINOTECAN]
inhibition in vivo at 3 mg/kg (NCI-H446 [1]): 26.8% | Ratio IC50 [2]: 15 | IC50 (NCI-H446 [3]): 0.13 nM | IC50 (NCI-H446 [4]): 0.15 nM | Activity (NCI-H446 [5]): 2.28 g | Ratio IC50 [6]: 13

CC[C@@]1(O)C(=O)OCc2c1cc1n(c2=O)Cc2c-1nc1cc3c(cc1c2-c1cccs1)OCO3
IC50 (SW-620): 0.29 nM | IC50 2008: 4.03 nM

CC[C@@]1(O)C(=O)OCc2c1cc1n(c2=O)Cc2c-1nc1cc3c(cc1c2-c1cc(C(F)(F)F)cc(C(F)(F)F)c1)OCO3
IC50 (SW-620): 1.44 nM | IC50 2008: 49.7 nM

CC[C@@]1(O)C(=O)OCc2c1cc1n(c2=O)Cc2cc3c(CN(C)C)c(O)ccc3nc2-1 [TOPOTECAN]
IC50 (SW-620): > 500 nM | IC50 2008: > 500 nM

COc1cccc2c1C(=O)c1c(O)c3c(c(O)c1C2=O)C[C@@](O)(C(=O)CO)C[C@@H]3O[C@H]1C[C@H](N)[C@H](O)[C@H](C)O1 [DOXORUBICIN]
Ratio IC50 [2]: 14.64 | IC50 (NCI-H446 [4]): 5.71 nM | Ratio IC50 [6]: 46.56

CC[C@@]1(O)C(=O)OCc2c1cc1n(c2=O)Cc2c-1nc1cc3c(cc1c2-c1ccco1)OCO3
IC50 (SW-620): 102 nM | IC50 2008: 0.16 nM

CC[C@@]1(O)C(=O)OCc2c1cc1n(c2=O)Cc2c-1nc1cc3c(cc1c2-c1cnn(C)c1)OCO3
IC50 (SW-620): 0.84 nM | IC50 2008: 22.4 nM

CC[C@@]1(O)C(=O)OCc2c1cc1n(c2=O)Cc2cc3cc4c(cc3nc2-1)OCO4
Activity (NCI-H446 [7]): 0.34% | IC50 (H69AR [8]): 6.29 nM | Activity (H69AR [9]): 5.73% | Activity (NCI-H446 [10]): 0.97% | Activity (NCI-H446 [11]): 0.37% | inhibition in vivo at 3 mg/kg (NCI-H446 [1]): 27.7% | Activity (NCI-H446 [12]): Active | Activity (NCI-H446 [13]): 0.83% | Activity (NCI-H446 [14]): 9.64% | Activity (H69AR [15]): 32.78% | IC50 (SH-SY5Y): 24.2 nM | IC50 (HepG2): 10.6 nM | Activity (NCI-H446 [16]): Active | Ratio IC50 [2]: 2.09 | Activity (NCI-H446 [17]): Active | Activity (NCI-H446 [18]): 14.27% | Activity (H69AR [19]): 2.87% | IC50 (NCI-H69): 15.8 nM | IC50 (NCI-H446 [3]): 6.61 nM | Activity (NCI-H446 [20]): 3.93% | IC50 (MCF7): 63.3 nM | Activity (H69AR [21]): 0.43% | Activity (H69AR [22]): 1.56% | IC50 (SW-620): 0.93 nM | Activity (H69AR [23]): 7.33% | Activity (H69AR [24]): 1.72% | Activity (H69AR [25]): 1.3% | Activity (NCI-H446 [26]): 2.82% | IC50 (Bel-7402): 21.8 nM | IC50 (U-87 MG): 109 nM | IC50 2008: 37.3 nM | Activity (H69AR [27]): 0.58% | IC50 (NCI-H446 [4]): 18.5 nM | Ratio IC50 [6]: 0.78 | Activity (NCI-H446 [28]): 1.83%

CC[C@@]1(O)C(=O)OCc2c1cc1n(c2=O)Cc2c-1nc1cc3c(cc1c2-c1ccsc1)OCO3
IC50 (SW-620): 0.36 nM | IC50 2008: 39.2 nM

CC[C@@]1(O)C(=O)OCc2c1cc1n(c2=O)Cc2c-1nc1cc3c(cc1c2-c1cccnc1)OCO3
IC50 (SW-620): 0.17 nM | IC50 2008: 11.6 nM

CC[C@@]1(O)C(=O)OCc2c1cc1n(c2=O)Cc2c-1nc1cc3c(cc1c2-c1ccncc1)OCO3
IC50 (SW-620): 2.67 nM | IC50 2008: 93.5 nM

CC[C@@]1(O)C(=O)OCc2c1cc1n(c2=O)Cc2c-1nc1cc3c(cc1c2-c1ccc(CO)cc1)OCO3
IC50 (SW-620): 0.28 nM | IC50 2008: 7.67 nM

COc1cc([C@@H]2c3cc4c(cc3[C@@H](O[C@@H]3O[C@@H]5CO[C@@H](C)O[C@H]5[C@H](O)[C@H]3O)[C@H]3COC(=O)[C@H]23)OCO4)cc(OC)c1O [ETOPOSIDE]
Ratio IC50 [2]: 11.48 | IC50 (NCI-H446 [4]): 192 nM | Ratio IC50 [6]: 19.28
